Experiment [1] has as its system control cells (CHO-K1 cells expressing YC2.60 gene). Kind of experiment: Calcium imaging of control cells (CHO-K1 cells expressing YC2.60 gene only). Particulars: control cells without TMC6, stimulation with high-concentration NaCl solution. The class given is cell-based, Chinese hamster. The procedure:
CHO-K1 cells were transfected with TMC6-pcDNA3.1 or pcDNA3.1 in combination with YC2.60-pcDNA, to prepare TMC6-expressing cells (cells expressing the mouse TMC6 gene and the YC2.60 gene) and control cells (cells expressing the YC2.60 gene). The prepared cells were stimulated, and activation of the cells was measured. The procedure was as follows.
That is, first, CHO-K1 cells (ATCC) were inoculated into a culture dish having a diameter of 60 mm while adjusting the number of the cells to obtain 60% confluence, and cultured for 8 hr. As the medium, 5 mL of Ham's F-12K (Kaighn's) (Life Technologies) containing 10% fetal bovine serum (Life Technologies) was used. A 15 μL aliquot of FuGENE 6 (Promega) was added to 235 μL of Opti-MEM (Thermo Fisher Scientific), and incubated for 5 min at a room temperature. Then, 0.625 μg of TMC6-pcDNA3.1 and 2.5 μg of YC2.60-pcDNA were further added thereto, and incubated for 15 min at a room temperature. Then, the whole of the resultant mixture was dropped into the culture broth of the CHO-K1 cells, and the culture broth was mildly stirred. Then, the cells were further cultured for 18 hr under a condition of 5% CO2 at 37° C., to obtain the TMC6-expressing cells. Similarly, the control cells were obtained through transfection using pcDNA3.1 instead of TMC6-pcDNA3.1.
After the cultivation, the culture broth was removed. […]

Experiment [2] relates to Pongo abelii TMC6 protein. Kind of experiment: Calcium imaging of CHO-K1 cells expressing the Pongo abelii TMC6 gene. The class given is cell-based. Particulars: stimulation with high-concentration NaCl solution for 60 sec, 31 cells. The source says:
CHO-K1 cells were transfected with Macaca mulatta TMC6-2A-YC260TM in pcDNA3.1(−), Pongo abelii TMC6-2A-YC260TM in pcDNA3.1(−), Mouse-Aotus nancymaae chimera TMC6 2A-YC260TM in pcDNA3.1(−), or YC2.60-pcDNA, to prepare TMC6-expressing cells (cells expressing the Macaca mulatta TMC6 gene, the Pongo abelii TMC6 gene, or the mouse/Aotus nancymaae chimeric TMC6 gene, in combination with the YC2.60 gene) and control cells (cells expressing the YC2.60 gene). The prepared cells were stimulated, and activation of the cells was measured. The procedure was as follows.
First, a plurality of sterile cover glasses (18×32 mm, Matsunami Glass) were placed at the bottom of a culture dish having a diameter of 100 mm so as not to be overlapped to each other. CHO-K1 cells (ATCC) were inoculated thereto while adjusting the number of the cells to obtain 60% confluence, and cultured for 24 hr. Then, medium exchange was carried out. As the medium, 12 mL of Ham's F-12K (Kaighn's) (Life Technologies) containing 10% fetal bovine serum (Life Technologies) was used. […]
Change of the intracellular calcium concentration was measured and analyzed with analysis software equipped with FV1200. An average YFP/CFP value of all the cell of which the YFP/CFP value was changed by stimulation with the ATP stimulation solution was calculated at each measurement. […]

`[Cl-].[Na+]` [NaCl, sodium chloride]: the “change of YFP/CFP value (intracellular calcium concentration)” value in experiment [1] is “not observed an increase”. The “change of average YFP/CFP value (intracellular calcium concentration)” value in experiment [2] is given as “increase”.

Source of the values: patent US10175228B2, “Method of using transmembrane channel-like protein 6 (TMC6) protein to identify substances affecting salty taste” (priority 2016, dated 2019).
